Laboratory results as given in US20250129095A1, “ANNULATED 2-AMINO-3-CYANO THIOPHENES AND DERIVATIVES FOR THE TREATMENT OF CANCER” (Boehringer Ingelheim Int'l GmbH Corp., priority 2021, published 2025).

Experiments:
[1] = biological target: T1, KRAS (G12C)::SOS1 (Homo sapiens, UniProt P01116, C118S/C51S/C80L/G12C); test: KRAS::SOS1 AlphaScreen binding assay, KRAS G12C; conditions: read-out: KRASG12C IC50
T1 construct: KRAS (G12C) 1-169, N-terminal 6His-tag for purification, cleaved off; 6His-tag (N, cleaved yes); made in house
T1 sequence (P01116 1-169 isoform P01116-2 G12C/C51S/C80L/C118S): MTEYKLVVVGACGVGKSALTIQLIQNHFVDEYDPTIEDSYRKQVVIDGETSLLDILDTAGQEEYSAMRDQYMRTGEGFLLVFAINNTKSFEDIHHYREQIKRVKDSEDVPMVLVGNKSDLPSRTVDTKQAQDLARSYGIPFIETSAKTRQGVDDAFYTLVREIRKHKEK
Excerpt: This assay can be used to examine the potency with which compounds according to the invention binding to (mutated) KRAS inhibit the protein-protein interaction between SOS1 and (mutated) KRAS e.g., KRAS WT, KRAS G12C, KRAS G12D, KRAS G12V, KRAS G13D. […] Low IC50 values in this assay setting are indicative of strong inhibition of protein-protein interaction between SOS1 and KRAS:
These assays measure the inhibitory effect of compounds on KRAS mutant protein-protein interactions using the Alpha Screen technology by Perkin Elmer
The following (mutant) enzyme forms of KRAS and interacting proteins are used in these assays at the given concentrations: • KRAS (G12D) 1-169, N-terminal 6His-tag, C-terminal avi-tag (Xtal BioStructures, Inc.); final assay concentration 10 nM and SOS1 564-1049, N-terminal 229 GST-tag, TEV cleavage site (Viva Biotech Ltd); final assay concentration 5 nM; • KRAS (G12C) 1-169, N-terminal 6His-tag for purification, cleaved off, C-terminal avi-tag, biotinylated, mutations: C51S, C80L, C118S (in house); final assay concentration 7.5 nM and SOS1 564-1049, N-terminal 229 GST-tag, TEV cleavage site (Viva Biotech Ltd); final assay concentration 5 nM; • KRAS (G12V) 1-169, N-terminal 6His-tag for purification, cleaved off, C-terminal avi-tag, biotinylated, TEV cleavage site, mutation: C118S, GDP loaded (in house); final assay concentration 10 nM and SOS1 564-1049, N-terminal 229 GST-tag, TEV cleavage site (Viva Biotech Ltd); final assay concentration 10 nM; • KRAS (G13D) 1-169, N-terminal 6His-tag for purification, cleaved off, C-terminal avi-tag, biotinylated, TEV cleavage site, mutation: C118S, GDP loaded (in house); final assay concentration 10 nM and SOS1 564-1049, N-terminal 229 GST-tag, TEV cleavage site (Viva Biotech Ltd); final assay concentration 10 nM; • KRAS (WT) 1-169, N-terminal 6His-tag for purification, cleaved off, C-terminal avi-tag, biotinylated, TEV cleavage site, mutation: C118S, GDP loaded (in house); final assay concentration 10 nM and SOS1 564-1049, N-terminal 229 GST-tag, TEV cleavage site (Viva Biotech Ltd); final assay concentration 10 nM.
Test compounds dissolved in DMSO are dispensed onto assay plates (Proxiplate 384 PLUS, white, PerkinElmer; 6008289) using an Access Labcyte Workstation with the Labcyte Echo 55×. For the chosen highest assay concentration of 100 μM, 150 nL of compound solution are transferred from a 10 mM DMSO compound stock solution. A series of eleven fivefold dilutions per compound are transferred to the assay plate, compound dilutions are tested in duplicates. DMSO are added as backfill to a total volume of 150 nL.
The assays run on a fully automated robotic system in a darkened room below 100 Lux. To 150 nl of compound dilution 10 μl of a mix including KRAS mutant protein, SOS1 (final assay concentrations see above) and GDP nucleotide (Sigma G7127; final assay concentration 10 μM) in assay buffer (1×PBS, 0.1% BSA, 0.05% Tween 20) are added into columns 1-24.
After 30 minutes incubation time 5 μl of Alpha Screen bead mix in assay buffer are added into columns 1-23. Bead mix consists of AlphaLISA Glutathione Acceptor Beads (PerkinElmer, Cat No AL109) and AlphaScreen Streptavidin Donor Beads (PerkinElmer Cat No 6760002) in assay buffer at a final assay concentration of 10 μg/ml each.
Plates are kept at room temperature in a darkened incubator. After an additional 60 minutes incubation time the signal is measured in a PerkinElmer Envision HTS Multilabel Reader using the AlphaScreen specs from PerkinElmer.
Each plate contains up to 16 wells of a negative control depending on the dilution procedure (platewise or serial) (DMSO instead of test compound; with KRAS mutant::SOS1 GDP mix and bead mix; column 23) and 16wells of a positive control (DMSO instead of test compound; with KRAS mutant::SOS1 GDP mix w/o bead mix; column 24).
As internal control known inhibitors of KRAS mutant::SOS1 interaction can be measured on each compound plate. […]

[2] = system: SK-CO-1 cells; test: SK-CO-1 CTG proliferation assay (120 h) (CRC, G12V); assay type: cell-based; conditions: Homo sapiens
Experimental: (§1) SK-CO-1 cells (ATCC HTB-39) are dispensed into 384-well plates, flat and clear bottom (Greiner, PNr. 781091) at a density of 500 cells per well in 60 μL EMEM (Sigma M5650)+10% Fetal Calf Serum (HyClone, PNr.: SH30084.03) and incubated at 37° C. in a CO2 incubator overnight. The next day, compounds (10 mM stock in DMSO) are added with the ECHO acoustic liquid handler system (Beckman Coulter), including DMSO controls. Plates are incubated for 120 h, and cell viability is measured using CellTiter-Glo luminescent cell viability reagent (Promega product code G7570). Viability (stated as percent of control) is defined as relative luminescence units RLU of each well divided by the RLU of cells in DMSO controls.

[3] = system: LOVO cells; test: LOVO CTG proliferation assay (120 h) (CRC, G13D); assay type: cell-based; conditions: Homo sapiens
Experimental: LOVO cells (ATCC CCL-229) are dispensed into 384-well plates, flat and clear bottom (Greiner, PNr. 781091) at a density of 1000 cells per well in 60 μL DMEM (Sigma D6429)+10% Fetal Calf Serum (HyClone, PNr.: SH30084.03) and incubated at 37° C. in a CO2 incubator overnight. The next day, compounds (10 mM stock in DMSO) are added with the ECHO acoustic liquid handler system (Beckman Coulter), including DMSO controls. Plates are incubated for 120 h, and cell viability is measured using CellTiter-Glo luminescent cell viability reagent (Promega product code G7570). Viability (stated as percent of control) is defined as relative luminescence units RLU of each well divided by the RLU of cells in DMS0 controls. IC50 values are determined from viability measurements by non-linear regression using a four-parameter model.

[4] = system: SAS cells; test: SAS CTG proliferation assay (120 h) (HNSCC, wt amplified); assay type: cell-based
Experimental: as §1, with “SAS” for “SK-CO-1”, “(JCRB0260)” for “(ATCC HTB-39)”, “300” for “500”, “DMEM:F12 (Gibco 31330-038)+10%” for “EMEM (Sigma M5650)+10%”, “overnight” for “overnight.”

IC50 [1] [nM]	IC50 [2] [nM]	IC50 [3] [nM]	SMILES	IC50 [4] [nM]
2	139	216	C[C@H](Oc1cc(O[C@@H]2CNC[C@@H]2F)nc(-c2noc3c2CCC[C@@]32CCCc3sc(N)c(C#N)c32)n1)[C@@H]1CCCN1C [II-29]	1050
2	23	117	COCCOc1cc(O[C@@H](C)[C@@H]2CCCN2C)nc(-c2noc3c2CCC[C@@]32CCCc3sc(N)c(C#N)c32)n1 [II-5]	67
1	260	130	CO[C@@H]1C[C@@H]([C@H](C)Oc2cc(O[C@@H]3CNC3(C)C)nc(-c3noc4c3CCC[C@@]43CCCc4sc(N)c(C#N)c43)n2)N(C)C1 [II-30]	267
1	23	32	C[C@H](Oc1cc(Oc2cccnc2)nc(-c2onc3c2CCC[C@@]32CCCc3sc(N)c(C#N)c32)n1)[C@@H]1CCCN1C [Example I-2]	15
2	1200	4080	C[C@H](Oc1cc(N(C)C)nc(-c2noc3c2CCC[C@@]32CCCc3sc(N)c(C#N)c32)n1)[C@@H]1CCCN1C [II-10]	795
2	774	501	C[C@H](Oc1cc(O[C@H]2CNC(C)(C)C2)nc(-c2noc3c2CCC[C@@]32CCCc3sc(N)c(C#N)c32)n1)[C@@H]1CCCN1C (single isomer, unassigned) [II-8]	2600
2	26	53	C[C@H](Oc1cc(Oc2nccs2)nc(-c2noc3c2CCC[C@@]32CCCc3sc(N)c(C#N)c32)n1)[C@@H]1CCCN1C [II-2]	44
1	88	781	C[C@H](Oc1cc(OCCO)nc(-c2noc3c2CCC[C@@]32CCCc3sc(N)c(C#N)c32)n1)[C@@H]1CCCN1C [II-6]	40
10	900	139	C[C@H](Oc1cc(N(C)CCN(C)C)nc(-c2noc3c2CCC[C@@]32CCCc3sc(N)c(C#N)c32)n1)[C@@H]1CCCN1C [II-20]	327
2	21	15	C[C@H](Oc1cc(Oc2cnccn2)nc(-c2noc3c2CCC[C@@]32CCCc3sc(N)c(C#N)c32)n1)[C@@H]1CCCN1C [II-7]	1390
1	24	54	C[C@H](Oc1cc(Oc2nccs2)nc(-c2onc3c2CCC[C@@]32CCCc3sc(N)c(C#N)c32)n1)[C@@H]1CCCN1C [Example I-1]	19
2	28	93	C[C@H](Oc1cc(O[C@H]2CCOC2)nc(-c2noc3c2CCC[C@@]32CCCc3sc(N)c(C#N)c32)n1)[C@@H]1CCCN1C [II-4]	44
